Source: ChEMBL document CHEMBL4130389, “An integrative study to identify novel scaffolds for sphingosine kinase 1 inhibitors” (Eur J Med Chem, 2017)

biological target: Sphingosine kinase 1 (Homo sapiens, UniProt Q9NYA1); assay: Inhibition of human N-terminal MGHHHHHHHHHHSSG-tagged SphK1 (2 to 384 residues) expressed in Escherichia coli Rosetta-2 by fluorescence assay
Sequence (Q9NYA1 whole entry, the tested form may be a part): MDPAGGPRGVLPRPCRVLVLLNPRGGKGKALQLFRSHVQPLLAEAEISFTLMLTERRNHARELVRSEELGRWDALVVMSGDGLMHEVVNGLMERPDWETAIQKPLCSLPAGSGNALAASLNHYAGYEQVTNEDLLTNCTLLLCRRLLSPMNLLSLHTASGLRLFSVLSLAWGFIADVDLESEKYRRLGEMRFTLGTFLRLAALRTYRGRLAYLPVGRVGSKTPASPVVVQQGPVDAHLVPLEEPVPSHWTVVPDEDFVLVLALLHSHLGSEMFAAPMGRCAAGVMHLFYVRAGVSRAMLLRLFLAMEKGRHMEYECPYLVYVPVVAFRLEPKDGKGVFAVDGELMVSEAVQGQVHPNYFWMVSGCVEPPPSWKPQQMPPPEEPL

IC50 [µM] | SMILES
12 | CC1Cc2c(N/N=C/c3ccc(Cl)cc3)ncnc2N(C)c2ccccc21 (stereo not drawn)
55 | CCCCOC(=O)Nc1ccc(C(O)CN2CCN(c3ccncc3)CC2)cc1 (stereo not drawn)
60 | CCCCOC(=O)Nc1cccc(C(O)CN2CCN(c3ccncc3)CC2)c1 (stereo not drawn)
